Structures are written as SMILES.

This passage reports Ki results from patent publication US8163740B2, “6-substituted benzoxazines” (Hoffmann-La Roche Inc., priority 2008, dated 2012).

Chain of recombinant human 5-HT5A receptor (P47898 whole entry): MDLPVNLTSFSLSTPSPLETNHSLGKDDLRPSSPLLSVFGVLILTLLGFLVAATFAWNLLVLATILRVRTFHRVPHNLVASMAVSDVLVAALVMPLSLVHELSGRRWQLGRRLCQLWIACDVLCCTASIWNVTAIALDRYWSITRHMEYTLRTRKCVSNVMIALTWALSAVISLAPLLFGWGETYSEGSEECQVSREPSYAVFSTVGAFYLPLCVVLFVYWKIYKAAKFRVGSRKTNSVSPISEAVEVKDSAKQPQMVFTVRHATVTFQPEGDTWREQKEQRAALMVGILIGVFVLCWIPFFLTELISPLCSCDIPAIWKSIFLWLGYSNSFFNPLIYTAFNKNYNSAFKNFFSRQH

For this assay, the target named is recombinant human 5-HT5A receptor (Homo sapiens, UniProt P47898). Nature of the assay: [3H]LSD radioligand binding assay. The following applies: [3H]LSD (approximately 1 nM); membranes from HEK-EBNA cells transiently expressing 5-HT5A; Ki by Cheng-Prussoff equation; read-out: Ki. As for the experimental part:
A [^3H]LSD radioligand binding assay was used to determine the affinity of the compounds for the recombinant human 5-HT5A receptor, in membranes from transiently (cDNA) expressed 5-HT5A receptors in Human Embryonic Kidney-EBNA (HEK-EBNA) cells. Assay buffer consisted of Tris (50 mM) buffer containing 1 mM EGTA, 10 mM MgCl2 (pH 7.4) and 10 μM pargyline. The binding assay was carried out in 96-well-plates in the presence of [^3H]LSD (approximately 1 nM), approximately 2 μg/well of membrane protein, and 0.5 mg of Ysi-poly-1-lysine SPA beads in a final volume of 200 μl of buffer. Non-specific binding was defined using methiothepin 2 μM. Compounds were tested at 10 concentrations. All assays were conducted in duplicate and repeated at least two times. Assay plates were incubated for 120 min at room temperature before centrifugation. Bound ligand was determined using a Packard Topcount scintillation counter. IC50 values were calculated using a non-linear curve fitting program and Ki values calculated using the Cheng-Prussoff equation.
`Fc1ccc2c(c1)CCC2NC1=Nc2ccc(Nc3nccc(C(F)(F)F)n3)cc2CO1` (racemic) [Example 58, rac-N^2-(5-Fluoro-indan-1-yl)-N^6-(4-trifluoromethyl-pyrimidin-2-yl)-4H-benzo[d][1,3]oxazine-2,6-diamine]: the Ki was 6.8 nM.

Regarding `COc1cccc2c1C(NC1=Nc3ccc(Nc4cccc(C(F)(F)F)n4)cc3CO1)CO2` (racemic) [Example 59, rac-N^2-(4-Methoxy-2,3-dihydro-benzofuran-3-yl)-N^6-(6-trifluoromethyl-pyridin-2-yl)-4H-benzo[d][1,3]oxazine-2,6-diamine], the Ki was found to be 7.82 nM. With `COc1cccc2c1C(NC1=Nc3ccc(Nc4nccc(C(F)(F)F)n4)cc3CO1)CO2` (racemic) [Example 60, rac-N^2-(4-Methoxy-2,3-dihydro-benzofuran-3-yl)-N^6-(4-trifluoromethyl-pyrimidin-2-yl)-4H-benzo[d][1,3]oxazine-2,6-diamine] the figure was 12.5 nM. With `COc1cccc2c1C(NC1=Nc3ccc(NS(=O)(=O)N(C)C)cc3CO1)CC2` (racemic) [Example 61, rac-N,N-(Dimethyl)-N′-{2-(7-Methoxy-indan-1-ylamino)-4H-benzo[d][1,3]oxazin-6-yl}-sulfamide], the inhibition constant (Ki) was 2.6 nM. With `COc1cccc2c1C(NC1=Nc3ccc(NS(=O)(=O)N4CCCCC4)cc3CO1)CC2` (racemic) [Example 62, rac-Piperidine-1-sulfonic acid [2-(7-methoxy-indan-1-ylamino)-4H-benzo[d][1,3]oxazin-6-yl]-amide] the figure was 3.26 nM; with `COc1cccc2c1C(NC1=Nc3ccc(NS(=O)(=O)N4CCOCC4)cc3CO1)CC2` (racemic) [Example 63, rac-Morpholine-4-sulfonic acid [2-(7-methoxy-indan-1-ylamino)-4H-benzo[d][1,3]oxazin-6-yl]-amide], 3.32 nM; with `CN(C)S(=O)(=O)Nc1ccc2c(c1)COC(NC1CCc3cc(F)ccc31)=N2` (racemic) [Example 64, rac-N,N-(Dimethyl)-N′-{2-(5-Fluoro-indan-1-ylamino)-4H-benzo[d][1,3]oxazin-6-yl}-sulfamide], 4.08 nM. Next, `Nc1ccc2c(c1)COC(NC1CCOc3ccccc31)=N2` (racemic) [Example 75, rac-N^2-Chroman-4-yl-4H-benzo[d][1,3]oxazine-2,6-diamine]: 16.3 nM. With `COc1cccc2c1C(NC1=Nc3ccc(Nc4cccc(C(F)(F)F)n4)cc3CO1)CC2` (racemic) [Example 80, rac-N^2-(7-Methoxy-indan-1-yl)-N^6-(6-trifluoromethyl-pyridin-2-yl)-4H-benzo[d][1,3]oxazine-2,6-diamine], the Ki amounted to 4.26 nM. As to `COc1cccc2c1C(NC1=Nc3ccc(Nc4nccc(C(F)(F)F)n4)cc3CO1)CC2` (racemic) [Example 81, rac-N^2-(7-Methoxy-indan-1-yl)-N^6-(4-trifluoromethyl-pyrimidin-2-yl)-4H-benzo[d][1,3]oxazine-2,6-diamine], the Ki turned out to be 7.16 nM. Next, `COc1cccc2c1C(NC1=Nc3ccc(NC(=O)CN4CCN(C)CC4)cc3CO1)CC2` (racemic) [Example 86, rac-N-[2-(7-Methoxy-indan-1-ylamino)-4H-benzo[d][1,3]oxazin-6-yl]-2-(4-methyl-piperazin-1-yl)-acetamide]: 1.43 nM; `O=C(Nc1ccc2c(c1)COC(NC1CCOc3ccccc31)=N2)C1CC1` (racemic) [Example 90, rac-Cyclopropanecarboxylic acid [2-(chroman-4-ylamino)-4H-benzo[d][1,3]oxazin-6-yl]-amide]: 8.28 nM. Next, `CN(C)S(=O)(=O)Nc1ccc2c(c1)COC(NC1CCOc3ccccc31)=N2` (racemic) [Example 91, rac-N,N-(Dimethyl)-N′-{2-(chroman-4-ylamino)-4H-benzo[d][1,3]oxazin-6-yl}-sulfamide]: 52.5 nM; `COc1cccc2c1C(NC1=Nc3ccc(NS(C)(=O)=O)cc3CO1)CC2` (racemic) [Example 102, rac-N-[2-(7-Methoxy-indan-1-ylamino)-4H-benzo[d][1,3]oxazin-6-yl]-methanesulfonamide]: 8.36 nM; `COc1cccc2c1C(NC1=Nc3ccc(NS(=O)(=O)C4CC4)cc3CO1)CC2` (racemic) [Example 103, rac-Cyclopropanesulfonic acid [2-(7-methoxy-indan-1-ylamino)-4H-benzo[d][1,3]oxazin-6-yl]-amide]: 2.82 nM. `COc1cccc2c1C(NC1=Nc3ccc(NS(=O)(=O)c4ccccc4)cc3CO1)CC2` (racemic) [Example 104, rac-N-[2-(7-Methoxy-indan-1-ylamino)-4H-benzo[d][1,3]oxazin-6-yl]-benzenesulfonamide]: the inhibitory constant (Ki) came to 8.68 nM. Next, `COc1cccc2c1C(NC1=Nc3ccc(Nc4nnn(C(C)(C)C)n4)cc3CO1)CC2` (racemic) [Example 112, rac-N^6-(2-tert-Butyl-2H-tetrazol-5-yl)-N^2-(7-methoxy-indan-1-yl)-4H-benzo[d][1,3]oxazine-2,6-diamine]: 4.56 nM; `COc1cccc2c1C(NC1=Nc3ccc(NS(=O)(=O)C4CC4)cc3CO1)CO2` (racemic) [Example 113, rac-Cyclopropanesulfonic acid [2-(4-methoxy-2,3-dihydro-benzofuran-3-ylamino)-4H-benzo[d][1,3]oxazin-6-yl]-amide]: 12.6 nM; `COc1cccc2c1C(NC1=Nc3ccc(NS(C)(=O)=O)cc3CO1)CO2` (racemic) [Example 114, rac-N-[2-(4-Methoxy-2,3-dihydro-benzofuran-3-ylamino)-4H-benzo[d][1,3]oxazin-6-yl]-methanesulfonamide]: 30.4 nM. `COc1cccc2c1C(NC1=Nc3ccc(NS(=O)(=O)c4ccccc4)cc3CO1)CO2` (racemic) [Example 115, rac-N-[2-(4-Methoxy-2,3-dihydro-benzofuran-3-ylamino)-4H-benzo[d][1,3]oxazin-6-yl]-benzenesulfonamide]: the Ki was 20.9 nM. Next, `CN1CCN(CC(=O)Nc2ccc3c(c2)COC(NC2CCOc4ccccc42)=N3)CC1` (racemic) [Example 120, rac-N-[2-(Chroman-4-ylamino)-4H-benzo[d][1,3]oxazin-6-yl]-2-(4-methyl-piperazin-1-yl)-acetamide]: 14.3 nM; `O=C(CN1CCOCC1)Nc1ccc2c(c1)COC(NC1CCOc3ccccc31)=N2` (racemic) [Example 121, N-[2-(Chroman-4-ylamino)-4H-benzo[d][1,3]oxazin-6-yl]-2-morpholin-4-yl-acetamide]: 135 nM; `COc1cccc2c1C(NC1=Nc3ccc(C#N)cc3CO1)CO2` (racemic) [Example 141, rac-2-(4-Methoxy-2,3-dihydro-benzofuran-3-ylamino)-4H-benzo[d][1,3]oxazine-6-carbonitrile]: 160 nM. As for `COc1cccc2c1C(NC1=Nc3ccc(C#N)cc3CO1)CC2` (racemic) [Example 142, rac-2-(7-Methoxy-indan-1-ylamino)-4H-benzo[d][1,3]oxazine-6-carbonitrile], the Ki worked out at 27 nM. Regarding `COc1ccccc1CNC1=Nc2ccc([N+](=O)[O-])cc2CO1` [Example 1, (2-Methoxy-benzyl)-(6-nitro-4H-benzo[d][1,3]oxazin-2-yl)-amine], the Ki is 390 nM. On to `Nc1ccc2c(c1)COC(N[C@@H]1CCc3ccccc31)=N2` [Example 2, (R)-N^2-Indan-1-yl-4H-benzo[d][1,3]oxazine-2,6-diamine], for which the Ki amounted to 1.04 nM. With `CN1CCN(CC(=O)Nc2ccc3c(c2)COC(N[C@@H]2CCc4ccccc42)=N3)CC1` [Example 3, N-[2-((R)-Indan-1-ylamino)-4H-benzo[d][1,3]oxazin-6-yl]-2-(4-methyl-piperazin-1-yl)-acetamide] the figure was 1.84 nM; with `COc1ccccc1CNC1=Nc2ccc(N)cc2CO1` [Example 4, N^2-(2-Methoxy-benzyl)-4H-benzo[d][1,3]oxazine-2,6-diamine], 6.05 nM.

Consider `COc1ccccc1CNC1=Nc2ccc(NC(=O)C3CC3)cc2CO1` [Example 7, Cyclopropanecarboxylic acid [2-(2-methoxy-benzylamino)-4H-benzo[d][1,3]oxazin-6-yl]-amide], for which the Ki is 2.98 nM.

In the case of `O=C(Nc1ccc2c(c1)COC(N[C@@H]1CCc3ccccc31)=N2)C1CC1` [Example 18, Cyclopropanecarboxylic acid [2-((R)-indan-1-ylamino)-4H-benzo[d][1,3]oxazin-6-yl]-amide], the Ki worked out at 0.83 nM. Next, `COCC(=O)Nc1ccc2c(c1)COC(N[C@@H]1CCc3ccccc31)=N2` [Example 19, N-[2-((R)-Indan-1-ylamino)-4H-benzo[d][1,3]oxazin-6-yl]-2-methoxy-acetamide]: 4.1 nM. Turning to `COc1ccccc1CNC1=Nc2ccc(NC(=O)CN3CCN(C)CC3)cc2CO1` [Example 26, N-[2-(2-Methoxy-benzylamino)-4H-benzo[d][1,3]oxazin-6-yl]-2-(4-methyl-piperazin-1-yl)-acetamide], the Ki stood at 6.12 nM. For `CN(C)S(=O)(=O)Nc1ccc2c(c1)COC(N[C@@H]1CCc3ccccc31)=N2` [Example 27, N,N-(Dimethyl)-N′-{2-((R)-indan-1-ylamino)-4H-benzo[d][1,3]oxazin-6-yl}-sulfamide], the Ki was found to be 2.36 nM. Next, `COc1ccccc1CNC1=Nc2ccc(NC(=O)CN3CCN(CCO)CC3)cc2CO1` [Example 28, 2-[4-(2-Hydroxy-ethyl)-piperazin-1-yl]-N-[2-(2-methoxy-benzylamino)-4H-benzo[d][1,3]oxazin-6-yl]-acetamide]: 10.2 nM.

Broadly, the Ki is a dissociation constant, usually derived from enzyme kinetics or from competition with a known ligand.
